Laboratory results taken from paper PMC8459971, “Evaluation of the hepatotoxicity of the novel GPR40 (FFAR1) agonist CPL207280 in the rat and monkey” (PLoS ONE, 2021).
Values joined by “and” are separate entries in the source; they are usually repeats but may differ in a detail not shown here. Equal values may be shown once.

Assays:
[1] = Viability assay, HepG2 cells, MTT test, 48 h; type: cell-based, human; settings: human, HepG2 cells, sheet Fig1 panel B (HepG2), 48 h, replicates, read-out: viability, normalized to DMSO-treated controls
Experimental: (§1) To study the viability of the liver cells, 5 × 10^3 HepG2 (ATCC®) or human primary cells (ThermoFisher Scientific, USA) were seeded in 100 μL of DMEM media (Gibco; Thermo Fisher Scientific, USA) supplemented with fetal bovine serum (FBS)- in a 96-well plate. […] The experiments were performed in triplicates.

HepG2 = experiment: Viability assay, HepG2 cells, MTT test, 48 h; type: cell-based, human; settings: for viability, normalized to DMSO-treated controls: sheet Fig1 panel B (HepG2), 48 h, replicates, in % (unit assumed)
Experimental: as §1

[2] = Stability in microsomes, mouse; type: in vitro ADME; settings: for average DEG [%]: mouse microsomes, with cofactors
Experimental: (§2) The final incubation volume was 500 μL. Two control compounds (verapamil and donepezil) were included for each microsomal species, along with the appropriate vehicle control. The reactions were terminated by transferring 50 μL of incubate to 100 μL methanol containing an internal standard (metoprolol) at appropriate time points (0, 10, 20, 40, 60, and 120 min for the test compound and 0, 5, 10, 20, 40, and 60 min for the control compounds). The termination plates were centrifuged at 4000 x g at 4°C for 30 min to precipitate the protein. The supernatants were then collected for analysis, and LC-MS/MS was used for detection purposes. The system consisted of an Acquity™ Binary Solvent Manager, Acquity™ 4-position heated column manager, 2777 Ultra High Pressure Autosampler, and a Xevo-TQ MS triple quadrupole mass spectrometer (Waters Ltd., Herts, UK). This process was carried out twice.

[3] = Stability in cryopreserved hepatocytes, human; type: in vitro ADME; settings: for Compound Remaining (% of 0 min): Hepatocyte Stability Human, single replicates
Experimental: as §2

OAT2v1 = molecular target: T1, OAT2v1 (Homo sapiens, UniProt Q9Y694); experiment: Uptake transporter inhibition assay, OAT2v1; type: cell-based; settings: for Accumulation (counts per minute; CPM) HEK293FT-MOCK / Accumulation (counts per minute; CPM) HEK293FT-OAT2v1: OAT2v1
T1 construct: expressed in transfected cells; host or cells: HEK cells
T1 sequence (Q9Y694 1-546 isoform Q9Y694-2): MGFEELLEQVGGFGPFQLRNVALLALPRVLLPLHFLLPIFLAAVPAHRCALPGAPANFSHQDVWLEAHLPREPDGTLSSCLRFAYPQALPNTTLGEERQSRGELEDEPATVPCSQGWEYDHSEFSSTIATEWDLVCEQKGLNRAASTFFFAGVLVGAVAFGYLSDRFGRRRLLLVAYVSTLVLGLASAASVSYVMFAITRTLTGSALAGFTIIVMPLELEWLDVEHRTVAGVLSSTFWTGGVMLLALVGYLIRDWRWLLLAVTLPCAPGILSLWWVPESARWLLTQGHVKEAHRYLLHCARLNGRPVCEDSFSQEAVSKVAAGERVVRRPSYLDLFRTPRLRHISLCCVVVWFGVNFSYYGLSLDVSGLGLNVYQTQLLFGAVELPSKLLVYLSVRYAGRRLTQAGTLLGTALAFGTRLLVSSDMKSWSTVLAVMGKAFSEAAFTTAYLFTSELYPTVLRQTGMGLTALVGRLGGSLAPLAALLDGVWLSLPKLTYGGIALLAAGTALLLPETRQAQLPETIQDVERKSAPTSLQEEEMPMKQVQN
Experimental: (§3) For the uptake transporter inhibition assay, cells were washed twice with 100 μL of the appropriate buffer (HK, pH 7.4) for OATP1B1, followed by HBSS (pH 7.4) for (NTCP, OAT1, OAT2v1, OATP1A2, and OATP1B3). Uptake experiments were carried out at 37 ± 1°C in 50 μL of the respective buffer containing the probe substrate and the compound or solvent.

NTCP = molecular target: T2, NTCP (Homo sapiens, UniProt Q14973); experiment: Uptake transporter inhibition assay, NTCP; type: cell-based; settings: for Accumulation (counts per minute; CPM) HEK293-NTCP / Accumulation (counts per minute; CPM) HEK293FT-MOCK: NTCP
T2 construct: expressed in transfected cells; host or cells: HEK cells
T2 sequence (Q14973 1-349): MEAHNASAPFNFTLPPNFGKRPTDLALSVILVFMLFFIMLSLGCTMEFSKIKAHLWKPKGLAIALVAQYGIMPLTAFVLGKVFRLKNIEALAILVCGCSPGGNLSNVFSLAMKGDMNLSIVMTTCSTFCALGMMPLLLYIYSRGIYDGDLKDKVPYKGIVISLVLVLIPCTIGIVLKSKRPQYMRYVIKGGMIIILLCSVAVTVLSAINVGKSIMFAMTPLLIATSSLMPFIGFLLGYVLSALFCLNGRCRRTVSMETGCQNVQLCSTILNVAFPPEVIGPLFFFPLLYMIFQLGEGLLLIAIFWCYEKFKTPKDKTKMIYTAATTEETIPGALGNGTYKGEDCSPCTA
Experimental: as §3

OATP1A2 = OATP1A2 (Homo sapiens, UniProt P46721); experiment: Uptake transporter inhibition assay, OATP1A2; settings: for Accumulation (counts per minute; CPM) HEK293FT-MOCK / Accumulation (counts per minute; CPM) HEK293FT-OATP1A2: OATP1A2;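 note: cellular uptake of a radiolabeled probe substrate in HBSS pH 7.4 at 37 °C with test compound or solvent, measured by liquid scintillation counting of cell lysates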
Experimental: For the uptake transporter inhibition assay, cells were washed twice with 100 μL of the appropriate buffer (HK, pH 7.4) for OATP1B1, followed by HBSS (pH 7.4) for (NTCP, OAT1, OAT2v1, OATP1A2, and OATP1B3). Uptake experiments were carried out at 37 ± 1°C in 50 μL of the respective buffer containing the probe substrate and the compound or solvent. […] After the experiment, cells were washed twice with 100 μL of cold appropriate buffer and lysed with 50 μL of 0.1 M NaOH. Radiolabeled probe substrate transport was determined by measuring an aliquot (35 μL) from each well for liquid scintillation counting.

[4] = Mouse (CD) microsomes, mean n = 2
[5] = cryopreserved hepatocytes (suspension), Human hepatocytes, mean n = 2

OATP1A2, sequence (P46721 whole entry): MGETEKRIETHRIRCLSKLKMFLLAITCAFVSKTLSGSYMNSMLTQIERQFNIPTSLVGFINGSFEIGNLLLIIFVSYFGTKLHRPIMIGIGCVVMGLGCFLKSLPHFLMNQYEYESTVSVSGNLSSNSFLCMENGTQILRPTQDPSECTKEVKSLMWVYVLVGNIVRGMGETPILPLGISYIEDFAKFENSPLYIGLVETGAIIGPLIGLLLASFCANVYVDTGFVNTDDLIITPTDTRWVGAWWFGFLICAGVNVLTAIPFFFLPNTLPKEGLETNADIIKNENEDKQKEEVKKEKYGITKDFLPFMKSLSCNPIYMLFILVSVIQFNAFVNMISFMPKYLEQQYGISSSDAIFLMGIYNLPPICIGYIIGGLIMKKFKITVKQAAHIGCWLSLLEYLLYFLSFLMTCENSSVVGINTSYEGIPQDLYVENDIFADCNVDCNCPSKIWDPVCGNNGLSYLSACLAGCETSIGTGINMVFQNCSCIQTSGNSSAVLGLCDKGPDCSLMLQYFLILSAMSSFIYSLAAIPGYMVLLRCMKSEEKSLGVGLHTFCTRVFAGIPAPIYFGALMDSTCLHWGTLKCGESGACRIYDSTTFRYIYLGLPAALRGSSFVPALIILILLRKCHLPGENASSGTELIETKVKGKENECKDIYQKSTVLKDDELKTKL

Structure (SMILES): CC#C[C@@H](CC(=O)O)c1ccc(OCC(C)=C(C)C)cc1 [CPL207280]
- viability at 48 h, 3.125 µM ([1]; 3.125 uM): 98.6%
- viability at 48 h, 6.25 µM ([1]; 6.25 uM): 113%
- viability at 48 h, 25 µM ([1]; 25 uM): 104%
- viability at 48 h, 50 µM ([1]; 50 uM): 109%
- reduction of viability (HepG2; HepG2, 48 h, 100 μM): 20%
- viability (HepG2; HepG2, 48 h, concentrations up to 10 μM): Neither compound exhibited altered viability
- times better tolerated by hepatocytes than TAK-875 (HepG2; hepatocytes (HepG2 and human primary cells)): 10 times
- viability, normalized to DMSO-treated controls (HepG2; 0.78 uM): 122.329 and 97.5265 and 106.534
- viability, normalized to DMSO-treated controls (HepG2; 3.125 uM): 108.127 and 98.0055
- viability, normalized to DMSO-treated controls (HepG2; 6.25 uM): 101.696 and 107.84
- viability, normalized to DMSO-treated controls (HepG2; 25 uM): 115.053 and 98.9684
- viability, normalized to DMSO-treated controls (HepG2; 50 uM): 104.17 and 94.9794
- viability, normalized to DMSO-treated controls (HepG2; 100 uM): 89.5534 and 112.297 and 99.381
- half-life at 3 μM [2, 4]: 1.93 h
- microsomal CLint at 3 μM [2, 4]: 11.9 µL/min/mg
- average DEG [%] ([2]; 0 min): 100.0%
- average DEG [%] ([2]; 20 min): 83.3%
- average DEG [%] ([2]; 40 min): 69.8%
- average DEG [%] ([2]; 60 min): 71.2%
- Compound Remaining (% of 0 min) ([3]; 0 min): 100 % of 0 min
- Compound Remaining (% of 0 min) ([3]; 10 min): 73.2 % of 0 min and 74.0 % of 0 min
- Compound Remaining (% of 0 min) ([3]; 20 min): 42.2 % of 0 min and 46.1 % of 0 min
- Compound Remaining (% of 0 min) ([3]; 40 min): 20.6 % of 0 min and 16.0 % of 0 min
- Compound Remaining (% of 0 min) ([3]; 60 min): 10.5 % of 0 min and 7.67 % of 0 min
- Compound Remaining (% of 0 min) ([3]; 120 min): 3.07 % of 0 min and 1.62 % of 0 min
- half-life at 3 μM [3, 5]: 0.283 h
- microsomal CLint at 3 μM [3, 5]: 82.8 µL/min/mg
- fold less inhibitory potency than TAK-875, OAT2v1 (OAT2v1): at least 10 fold
- Accumulation (counts per minute; CPM) HEK293FT-MOCK (OAT2v1; conc 0.10 µM): 34 CPM and 30 CPM
- Accumulation (counts per minute; CPM) HEK293FT-OAT2v1 (OAT2v1; conc 0.10 µM): 4632 CPM and 4226 CPM
- Accumulation (counts per minute; CPM) HEK293FT-MOCK (OAT2v1; conc 1.00 µM): 35 CPM and 32 CPM
- Accumulation (counts per minute; CPM) HEK293FT-OAT2v1 (OAT2v1; conc 1.00 µM): 4766 CPM and 4500 CPM
- Accumulation (counts per minute; CPM) HEK293FT-MOCK (OAT2v1; conc 3.00 µM): 30 CPM and 23 CPM
- Accumulation (counts per minute; CPM) HEK293FT-OAT2v1 (OAT2v1; conc 3.00 µM): 4371 CPM and 4417 CPM
- Accumulation (counts per minute; CPM) HEK293FT-MOCK (OAT2v1; conc 10.00 µM): 27 CPM and 18 CPM
- Accumulation (counts per minute; CPM) HEK293FT-OAT2v1 (OAT2v1; conc 10.00 µM): 4079 CPM and 4225 CPM
- Accumulation (counts per minute; CPM) HEK293FT-MOCK (OAT2v1; conc 30.00 µM): 32 CPM and 37 CPM
- Accumulation (counts per minute; CPM) HEK293FT-OAT2v1 (OAT2v1; conc 30.00 µM): 3998 CPM and 4091 CPM
- Accumulation (counts per minute; CPM) HEK293FT-MOCK (OAT2v1; conc 100.00 µM): 28 CPM and 36 CPM
- Accumulation (counts per minute; CPM) HEK293FT-OAT2v1 (OAT2v1; conc 100.00 µM): 3763 CPM and 3594 CPM
- Accumulation (counts per minute; CPM) HEK293FT-MOCK (OAT2v1; conc 300.00 µM): 35 CPM and 25 CPM
- Accumulation (counts per minute; CPM) HEK293FT-OAT2v1 (OAT2v1; conc 300.00 µM): 2566 CPM and 2951 CPM
- Accumulation (counts per minute; CPM) HEK293-NTCP (NTCP; conc 0.10 µM): 4707 CPM and 4966 CPM
- Accumulation (counts per minute; CPM) HEK293FT-MOCK (NTCP; conc 0.10 µM): 25 CPM
- Accumulation (counts per minute; CPM) HEK293-NTCP (NTCP; conc 1.00 µM): 4654 CPM and 4992 CPM
- Accumulation (counts per minute; CPM) HEK293FT-MOCK (NTCP; conc 1.00 µM): 29 CPM and 25 CPM
- Accumulation (counts per minute; CPM) HEK293-NTCP (NTCP; conc 3.00 µM): 4021 CPM and 4291 CPM
- Accumulation (counts per minute; CPM) HEK293FT-MOCK (NTCP; conc 3.00 µM): 19 CPM and 23 CPM
- Accumulation (counts per minute; CPM) HEK293-NTCP (NTCP; conc 10.00 µM): 3614 CPM and 3535 CPM
- Accumulation (counts per minute; CPM) HEK293FT-MOCK (NTCP; conc 10.00 µM): 24 CPM and 36 CPM
- Accumulation (counts per minute; CPM) HEK293-NTCP (NTCP; conc 30.00 µM): 2611 CPM and 3022 CPM
- Accumulation (counts per minute; CPM) HEK293FT-MOCK (NTCP; conc 30.00 µM): 21 CPM
- Accumulation (counts per minute; CPM) HEK293-NTCP (NTCP; conc 100.00 µM): 1462 CPM and 1666 CPM
- Accumulation (counts per minute; CPM) HEK293FT-MOCK (NTCP; conc 100.00 µM): 25 CPM and 27 CPM
- Accumulation (counts per minute; CPM) HEK293-NTCP (NTCP; conc 300.00 µM): 771 CPM and 846 CPM
- Accumulation (counts per minute; CPM) HEK293FT-MOCK (NTCP; conc 300.00 µM): 29 CPM and 23 CPM
- IC50 (NTCP; transformed HEK cells, up to 300μM, n = 2): 46.8 µM
- IC50 (OATP1A2): 118 µM
- fold less inhibitory potency than TAK-875, OATP1A2 (OATP1A2): at least 10 fold
- Accumulation (counts per minute; CPM) HEK293FT-MOCK (OATP1A2; conc 0.10 µM): 191 CPM and 198 CPM
- Accumulation (counts per minute; CPM) HEK293FT-OATP1A2 (OATP1A2; conc 0.10 µM): 9941 CPM and 9363 CPM
- Accumulation (counts per minute; CPM) HEK293FT-MOCK (OATP1A2; conc 1.00 µM): 175 CPM and 167 CPM
- Accumulation (counts per minute; CPM) HEK293FT-OATP1A2 (OATP1A2; conc 1.00 µM): 9582 CPM and 8309 CPM
- Accumulation (counts per minute; CPM) HEK293FT-MOCK (OATP1A2; conc 3.00 µM): 170 CPM and 189 CPM
- Accumulation (counts per minute; CPM) HEK293FT-OATP1A2 (OATP1A2; conc 3.00 µM): 9105 CPM and 8526 CPM
- Accumulation (counts per minute; CPM) HEK293FT-MOCK (OATP1A2; conc 10.00 µM): 199 CPM and 184 CPM
- Accumulation (counts per minute; CPM) HEK293FT-OATP1A2 (OATP1A2; conc 10.00 µM): 8813 CPM and 8062 CPM
- Accumulation (counts per minute; CPM) HEK293FT-MOCK (OATP1A2; conc 30.00 µM): 160 CPM and 178 CPM
- Accumulation (counts per minute; CPM) HEK293FT-OATP1A2 (OATP1A2; conc 30.00 µM): 6805 CPM and 7468 CPM
- Accumulation (counts per minute; CPM) HEK293FT-MOCK (OATP1A2; conc 100.00 µM): 179 CPM and 165 CPM
- Accumulation (counts per minute; CPM) HEK293FT-OATP1A2 (OATP1A2; conc 100.00 µM): 5379 CPM and 5182 CPM
- Accumulation (counts per minute; CPM) HEK293FT-MOCK (OATP1A2; conc 300.00 µM): 144 CPM and 136 CPM
- Accumulation (counts per minute; CPM) HEK293FT-OATP1A2 (OATP1A2; conc 300.00 µM): 2696 CPM and 2783 CPM
